The numbers were not newly measured in patent US20200390702A1, “LIPOSOMAL TAXANES FOR TREATMENT OF SCLC” (Plus Therapeutics, Inc., priority 2017, published 2020), which cites them from elsewhere.

Read-outs that look alike come from different tables or passages of the source.

The data set concerns SCLC. To be noted: intravenous.

As for `CC[C@@]1(O)C(=O)OCc2c1cc1n(c2=O)Cc2cc3c(CN(C)C)c(O)ccc3nc2-1` [Topotecan], the response rate is 4.0% (chemotherapy-refractory relapsed cases) and 20.4% (chemotherapy-sensitive relapsed cases).
